Columns and labels:
MAPK p38 phosphorylation = experiment: MAPK p38 Activation Assay (western blot), Panc-1; type: cell-based, human; conditions: at 10 μM, Panc-1 pancreatic cancer cell line; starred symbols = activation
Protocol: Protocol for MAPK p38 Activation Assay
This assay is referred to as the “MAPK p38 Activation Assay” throughout this application.
Cell lines: Human tumor-derived pancreatic cancer cell line Panc-1 (expressing KRas G12D mutant) was purchased from American Type Culture Collection and grown in complete DMEM-High Glucose medium, supplemented with penicillin (100 U/mL), streptomycin (100 μg/mL), and 10% heat-inactivated FBS at 37° C. in a humidified incubator with 5% CO2.
Method 1: Cells were plated at 350000 cells/well density in a 12-well plate, allowed 3 hours to adhere to the plate, then starved in the appropriate medium in the presence of 0.5% FBS overnight. The small molecules to be tested were added to the cells in the final concentration of 10 μM in the presence of 0.3% DMSO for 6 hours incubation at 37° C. For IC50 value determination, serial dilutions of compounds were added to cells under the same conditions. Next, cells were stimulated with 1.5 ng/ml EGF for 15 minutes then cells were lysed with lysis buffer containing 1% Triton X-100, EDTA, and Halt™ Protease & Phosphatase Inhibitor Cocktail (Thermo Scientific). Protein concentration was assessed by BCA protein assay (Thermo Scientific). Phosphorylation level of MAPK p38 was determined by western blot.
Method 2: Cells were plated at 350000 cells/well density in a 12-well plate in 10% FBS. The next day small molecules to be tested were added to the cells in the final concentration of 10 μM in the presence of 0.3% DMSO for 6 hours incubation at 37° C. For IC50 value determination, serial dilutions of compounds were added to cells under the same conditions. Next, cells were lysed with lysis buffer containing 1% Triton X-100, EDTA, and Halt™ Protease & Phosphatase Inhibitor Cocktail (Thermo Scientific). Protein concentration was assessed by BCA protein assay (Thermo Scientific). Phosphorylation level of MAPK p38 was determined by western blot.
Western blot protocol: Equal amounts of protein (15-50 μg) were separated by SDS-PAGE and transferred to nitrocellulose membranes (Invitrogen by Thermo Fisher Scientific). The membrane was stained with Ponceau S Stain (Boston BioProducts) to verify uniform protein loading. Membranes were blocked with 10% milk and phosphorylation levels of MAPK p38 were assessed by incubating overnight at 4° C. with the following antibody: Phospho-p38 MAPK (Thr180/Tyr182), from Cell Signaling Technology. Then the membranes were incubated with HRP-conjugated secondary antibody (Jackson Immunoresearch, West Grove, PA). Bands were incubated in Amersham ECL Prime Western Blotting Detection Reagent (GE Healthcare) and visualized using the ChemiDoc MP imaging system (Bio-Rad).

IL6 = experiment: IL-6 Quantification Assay (ELISA), LPS-stimulated RAW 264.7; type: cell-based; set-up: inhibition: dose or concentration left out as unconfirmed; conditions: Mus musculus, RAW264.7; read-out: IL-6: % inh.
KRas G12D mutant = experiment: Ras GTP Binding Domain Inhibition Assay (Ras Superfamily Assay); conditions: for KRas G12D mutant + SOS: % inh.: with SOS; for KRas G12D mutant: % inh.: without SOS
How it was run: (§1)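 Binding of 100 nM fluorescent GTP (Cy3 or Cy5, 45 min, room temperature) was read after washes from plate-captured His-tagged protein. Beforehand, compounds at 20 μM or in dilution series for IC50 sat 3 h on the protein in Tris buffer pH 7.4 or 7.0 with 1% DMSO, Sos GEF optionally added for the last hour.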

KRas wild type = experiment: as above; conditions: for KRas wild type + SOS: % inh.: with SOS; for KRas wild type: % inh.: without SOS
How it was run: as §1

Rac-1 = biological target: T1, Rac-1 (Homo sapiens, UniProt P63000); experiment: as above; conditions: read-out: Rac-1: % inh.
T1 construct: made in house
How it was run: as §1

Row | SMILES | % inh of MAPK p38 in Panc-1 (MAPK p38 phosphorylation) | inhibition (IL6) | KRas G12D mutant + SOS: % inh. (KRas G12D mutant; at 20 μM) | KRas G12D mutant: % inh. (KRas G12D mutant; at 20 μM) | KRas wild type + SOS: % inh. (KRas wild type; at 20 μM) | KRas wild type: % inh. (KRas wild type; at 20 μM) | inhibition at 20 µM (Rac-1) | KRas G12D mutant + SOS: % inh. (KRas G12D mutant; 20 μM compound) | KRas G12D mutant: % inh. (KRas G12D mutant; 20 μM compound) | KRas wild type + SOS: % inh. (KRas wild type; 20 μM compound) | KRas wild type: % inh. (KRas wild type; 20 μM compound)
1 | CO[C@H]1C[C@H](Nc2nc(-c3nccn3C)nn3cc(-c4ccc(CCN)cc4)c(-c4ccccc4)c23)C1.Cl [Compound 207, 6-(4-(2-Aminoethyl)phenyl)-N-((1r,3r)-3-methoxycyclobutyl)-2-(1-methyl-1H-imidazol-2-yl)-5-phenylpyrrolo[2,1-f][1,2,4]triazin-4-amine hydrochloride salt] | H (H = 100% inhibition) | 75 to 100% | A (A = 1-25% inhibition) | B (B = 26-49% inhibition) | B (B = 26-49% inhibition) | B (B = 26-49% inhibition) | 1 to 25% | – | – | – | –
2 | COC1CCCN(c2nc(-c3ccccn3)nn3cc(-c4ccn(C(C)C)n4)c(C)c23)C1 (racemic) [Compound 12, rac 6-(1-Isopropyl-1H-pyrazol-3-yl)-4-(3-methoxypiperidin-1-yl)-5-methyl-2-(pyridin-2-yl)pyrrolo[2,1-f][1,2,4]triazine] | H* (H* ≥ 100% activation) | 25 to 49% | – | – | – | – | 0% | 0 (0 = 0% inhibition) | A (A = 1-25% inhibition) | 0 (0 = 0% inhibition) | 0 (0 = 0% inhibition)
3 | COc1cc(Nc2nc(-c3ccccn3)nn3cc(-c4ccn(C(C)C)n4)c(C)c23)ncn1 [Compound 13, 6-(1-Isopropyl-1H-pyrazol-3-yl)-N-(6-methoxypyrimidin-4-yl)-5-methyl-2-(pyridin-2-yl)pyrrolo[2,1-f][1,2,4]triazin-4-amine] | H* (H* ≥ 100% activation) | 75 to 100% | – | – | – | – | 0% | 0 (0 = 0% inhibition) | A (A = 1-25% inhibition) | 0 (0 = 0% inhibition) | A (A = 1-25% inhibition)
4 | CO[C@H]1C[C@H](Nc2nc(-c3nccn3C)nn3cc(-c4cccc5c4CCO5)c(-c4ccccc4)c23)C1 [Compound 210, 6-(2,3-Dihydrobenzofuran-4-yl)-N-((1r,3r)-3-methoxycyclobutyl)-2-(1-methyl-1H-imidazol-2-yl)-5-phenylpyrrolo[2,1-f][1,2,4]triazin-4-amine] | G (G = 75-99% inhibition) | 75 to 100% | A (A = 1-25% inhibition) | A (A = 1-25% inhibition) | 0 (0 = 0% inhibition) | A (A = 1-25% inhibition) | 1 to 25% | – | – | – | –
5 | CO[C@@H]1C[C@H]1Nc1nc(-c2nccn2C)nn2cc(-c3cccnc3)c(-c3ccccc3)c12 (racemic) [Compound 190, N-((1R,2R)-2-Methoxycyclopropyl)-2-(1-methyl-1H-imidazol-2-yl)-5-phenyl-6-(pyridin-3-yl)pyrrolo[2,1-f][1,2,4]triazin-4-amine] | E (E = 1-30% inhibition) | 50 to 74% | B (B = 26-49% inhibition) | B (B = 26-49% inhibition) | B (B = 26-49% inhibition) | A (A = 1-25% inhibition) | 26 to 49% | – | – | – | –
6 | CO[C@H]1C[C@@H](Nc2nc(-c3nccn3C)nn3cc(-c4cccnc4)c(-c4ccccc4)c23)C1 [Compound 191, N-((1s,3s)-3-Methoxycyclobutyl)-2-(1-methyl-1H-imidazol-2-yl)-5-phenyl-6-(pyridin-3-yl)pyrrolo[2,1-f][1,2,4]triazin-4-amine] | E* (E* = 1-30% activation) | 50 to 74% | B (B = 26-49% inhibition) | B (B = 26-49% inhibition) | B (B = 26-49% inhibition) | A (A = 1-25% inhibition) | 1 to 25% | – | – | – | –
7 | COc1ccnc(Nc2nc(-c3nccn3C)nn3cc(-c4cccnc4)c(-c4ccccc4)c23)c1 [Compound 196, N-(4-Methoxypyridin-2-yl)-2-(1-methyl-1H-imidazol-2-yl)-5-phenyl-6-(pyridin-3-yl)pyrrolo[2,1-f][1,2,4]triazin-4-amine] | F (F = 31-74% inhibition) | 75 to 100% | D (D = 76-100% inhibition) | D (D = 76-100% inhibition) | D (D = 76-100% inhibition) | D (D = 76-100% inhibition) | 76 to 100% | – | – | – | –
8 | COCCNc1nc(-c2nccn2C)nn2cc(-c3ccncc3)c(-c3ccccc3)c12 [Compound 202, N-(2-Methoxyethyl)-2-(1-methyl-1H-imidazol-2-yl)-5-phenyl-6-(pyridin-4-yl)pyrrolo[2,1-f][1,2,4]triazin-4-amine] | E (E = 1-30% inhibition) | 50 to 74% | C (C = 50-75% inhibition) | C (C = 50-75% inhibition) | C (C = 50-75% inhibition) | B (B = 26-49% inhibition) | 26 to 49% | – | – | – | –
9 | COc1cccc(Nc2nc(-c3ccccn3)nn3cc(-c4ccn(C(C)C)n4)c(C)c23)n1 [Compound 14, 6-(1-Isopropyl-1H-pyrazol-3-yl)-N-(6-methoxypyridin-2-yl)-5-methyl-2-(pyridin-2-yl)pyrrolo[2,1-f][1,2,4]triazin-4-amine] | H* (H* ≥ 100% activation) | 50 to 74% | – | – | – | – | 0% | 0 (0 = 0% inhibition) | A (A = 1-25% inhibition) | A (A = 1-25% inhibition) | 0 (0 = 0% inhibition)
10 | COCCNc1nc(-c2nccn2C)nn2cc(-c3cccnc3)c(-c3ccccc3)c12 [Compound 195, N-(2-Methoxyethyl)-2-(1-methyl-1H-imidazol-2-yl)-5-phenyl-6-(pyridin-3-yl)pyrrolo[2,1-f][1,2,4]triazin-4-amine] | E* (E* = 1-30% activation) | 50 to 74% | A (A = 1-25% inhibition) | A (A = 1-25% inhibition) | 0 (0 = 0% inhibition) | A (A = 1-25% inhibition) | 1 to 25% | – | – | – | –
11 | Cn1ccnc1-c1nc(NS(C)(=O)=O)c2c(-c3ccccc3)c(-c3ccccc3)cn2n1 [Compound 212, N-(2-(1-Methyl-1H-imidazol-2-yl)-5,6-diphenylpyrrolo[2,1-f][1,2,4]triazin-4-yl) methanesulfonamide] | F (F = 31-74% inhibition) | 1 to 24% | D (D = 76-100% inhibition) | C (C = 50-75% inhibition) | D (D = 76-100% inhibition) | C (C = 50-75% inhibition) | 50 to 75% | – | – | – | –

Reference: patent US12459951B2, “Compounds that interact with RAS superfamily proteins for treatment of cancers, inflammatory diseases, rasopathies, and fibrotic disease” (SHY Therapeutics, LLC, priority 2022, dated 2025)
